Data from article PMC6369212, “Cytochrome P450 3A Enzymes Are Key Contributors for Hepatic Metabolism of Bufotalin, a Natural Constitute in Chinese Medicine Chansu” (Frontiers in Pharmacology, 2019).
Several values for one entry are separate records, joined by “and”; a condition that tells them apart may be missing. Equal values may be shown once.

Columns and labels:
HLM [1] = assay: Material balance of BFT and its metabolite in HLM; type: in vitro ADME, human
Description: A single metabolite of BFT was identified following incubation with HLM (0.3 mg protein/ml) in the presence of the NADPH-generating system (Figure 1). […] The metabolite was characterized by UFLC-DAD-ESI-MS, and the formation of monohydroxylbufotalin was NADPH-, time-, and microsome-dependent. […] The [M+H]^+ and [M+CH3CN+H]^+ ion of the metabolite at m/z in HLM were 461.3 and 502.4, respectively.

[2] = test system: BFT 5β-hydroxylation in pooled HLM; assay: Chemical inhibition of BFT 5β-hydroxylation by selective CYP inhibitors in HLM; type: in vitro ADME, human; conditions: BFT 10 μM, HLM 0.25 mg protein/ml
Description: (§1) Human liver microsomes or CYPs were incubated with NADPH-generating system, which included NADP^+ (1 mM), glucose-6-phosphate (10 mM), glucose-6-phosphate dehydrogenase (1 unit/ml), and 4 mM MgCl2 in 100 mM potassium phosphate buffer (pH 7.4) in a total incubation volume of 200 μl. After a 3 min preincubation at 37°C, the reaction was initiated by the addition of NADPH-generating system and further incubated at 37°C for 30 min. The reaction was quenched with 100 μl of ice-cold acetonitrile. The samples were chilled, spun at 20,000 × g for 20 min at 4°C. Aliquots of supernatants were then stored at -20°C until analysis. All incubations throughout the study were done in three experiments conducted in duplicate with S.D. values generally below 10%.

in vitro = conditions: human; for Km: pH 7.4, Km, BFT 5β-hydroxylation, HLM 0.25 mg protein/mL, 30 min, biphasic kinetics
Description: as §1
(§2) The formation rates of 5-HBFT was within the linear range of the incubation time and protein concentration. […] BFT was incubated with pooled HLM (0.25 mg protein/mL) for 30 min, or with recombinant CYP3A4 (5 nM) and CYP3A5 (10 nM) for 30 min. […] The kinetic constants were calculated with GraphPad Prism software, version 6.0, and the results were graphically represented by Eadie–Hofstee plots.
(§3) (1) v=Vmax 1[S]/Kmax 1+[S]+Vmax 2[S]/Kmax 2+[S]
(§4) where v is the rate of the reaction, [S] is the substrate concentration, Vmax is the maximum velocity estimate, Km is the substrate affinity constant.
(§5) Km values are μM, Vmax values were in nmol/min/mg protein for liver microsomes, or in nmol/min/nmol CYP for CYP3A. […] Each value was the mean ± S.D. of three determinations performed in duplicate.

HLM [3] = test system: HLM
Description: as §1, §2, §3, §4, §5

other P450 isoforms = assay: Reaction phenotyping of BFT hydroxylation with other recombinant P450 isoforms; type: in vitro ADME, human; conditions: BFT 3 and 100 μM, isoforms other than CYP3A4 and CYP3A5
From the text: BFT and BF were purchased from Shanghai Winherb Medical Technology Company (Shanghai, China). ABT, furafylline, sulfaphenazole, clomethiazole, omeprazole, 8-methoxypsoralen, ticlopidine, CYP3cide, glucose-6-phosphate dehydrogenase, D-glucose-6-phosphate, and NADP^+ were obtained from Sigma (St. Louis, MO, United States). Montelukast, quinidine, ketoconazole was purchased from Jianglai Biotechnology Co., Ltd. (Shanghai, China). The pooled HLMs (from 50 donors, lot no. X008067) were obtained from BioreclamationIVT (Baltimore, MD, United States). A panel of baculovirus expressed human P450s (CYP1A1, 1A2, 2A6, 2A13, 2B6, 2C8, 2C9, 2C19, 2D6, 2E1, 3A4, 3A5, 4F2, and 4F3), co-expressing NADPH-CYP reductase and cytochrome b5 were obtained from BD Gentest Corp (Woburn, MA, United States). All chemicals and solvents were of analytical grade.
[…] cDNA-expressed human P450 isoforms co-expressing NADPH-P450 reductase were used for assay of BFT hydroxylation activity.

recombinant human CYP3A4 = recombinant human CYP3A4 (Homo sapiens, UniProt P08684); assay: Kinetic analysis of 5β-hydroxylation in recombinant CYP3A4
Sequence of recombinant human CYP3A4 (P08684 2-503 limits assumed): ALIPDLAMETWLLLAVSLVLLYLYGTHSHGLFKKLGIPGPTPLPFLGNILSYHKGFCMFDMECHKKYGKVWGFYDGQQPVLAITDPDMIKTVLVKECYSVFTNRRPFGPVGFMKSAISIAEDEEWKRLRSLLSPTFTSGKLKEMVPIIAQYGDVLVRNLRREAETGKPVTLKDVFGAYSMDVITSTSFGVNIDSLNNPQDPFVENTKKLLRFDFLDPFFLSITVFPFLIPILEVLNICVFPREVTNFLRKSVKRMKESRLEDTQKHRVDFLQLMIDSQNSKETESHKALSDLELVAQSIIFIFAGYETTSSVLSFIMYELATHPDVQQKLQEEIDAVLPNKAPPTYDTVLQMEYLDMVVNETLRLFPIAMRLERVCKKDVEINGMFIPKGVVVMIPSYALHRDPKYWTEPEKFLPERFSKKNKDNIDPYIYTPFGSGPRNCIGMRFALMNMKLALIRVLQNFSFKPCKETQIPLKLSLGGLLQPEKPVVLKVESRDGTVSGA
Description: as §1, §2, §3, §4, §5

recombinant human CYP3A5 = recombinant human CYP3A5 (Homo sapiens, UniProt P20815); assay: Kinetic analysis of 5β-hydroxylation in recombinant CYP3A5
Sequence of recombinant human CYP3A5 (P20815 whole entry): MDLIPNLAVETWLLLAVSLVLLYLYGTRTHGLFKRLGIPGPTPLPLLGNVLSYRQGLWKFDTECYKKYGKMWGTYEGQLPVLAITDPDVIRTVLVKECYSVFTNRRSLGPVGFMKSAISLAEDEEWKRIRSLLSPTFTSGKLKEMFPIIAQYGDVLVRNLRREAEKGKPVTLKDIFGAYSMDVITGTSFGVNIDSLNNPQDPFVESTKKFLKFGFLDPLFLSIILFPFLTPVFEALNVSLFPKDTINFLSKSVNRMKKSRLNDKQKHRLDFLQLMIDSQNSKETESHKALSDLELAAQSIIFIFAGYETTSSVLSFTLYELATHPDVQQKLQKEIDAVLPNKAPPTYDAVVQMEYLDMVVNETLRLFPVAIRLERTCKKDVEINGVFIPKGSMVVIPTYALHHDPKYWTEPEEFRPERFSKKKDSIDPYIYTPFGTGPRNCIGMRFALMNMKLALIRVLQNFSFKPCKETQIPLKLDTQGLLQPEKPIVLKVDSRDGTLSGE
Description: as §1
(§6) BFT was incubated with pooled HLM (0.25 mg protein/mL) for 30 min, or with recombinant CYP3A4 (5 nM) and CYP3A5 (10 nM) for 30 min. […] The kinetic constants were calculated with GraphPad Prism software, version 6.0, and the results were graphically represented by Eadie–Hofstee plots.
(2) v=Vmax/1+(Km/[S])+([S]/Ksi)
(§7) where Ksi is the substrate inhibition constant.
as §5

[4] = test system: CC(=O)O[C@H]1C[C@]2(O)[C@@H]3CC[C@@H]4C[C@@H](O)CC[C@]4(C)[C@H]3CC[C@]2(C)[C@H]1c1ccc(=O)oc1; assay: cells, lysate or membranes named; conditions: other: CYP3A5 10 nM, 30 min, substrate inhibition kinetics; pH 7.4; 37.0 °C
Description: as §1, §6
(2) v=Vmax/1+(Km/[S])+([S]/Ksi)
as §7, §5

[5] = HLM 0.25 mg protein/mL, 30 min, biphasic kinetics
[6] = CYP3A4 5 nM, 30 min, biphasic kinetics
[7] = CYP3A5 10 nM, 30 min, substrate inhibition kinetics

For `CC(=O)OC1CC2(O)C3CCC4(O)CC(O)CCC4(C)C3CCC2(C)C1c1ccc(=O)oc1` (stereo not drawn) [5-HBFT, 5β-hydroxylbufotalin], the “Compound (%), material balance” value (HLM [1]; time 0 min) was 0%, the “Compound (%), material balance” value (HLM [1]; time 30 min) was 11.1392% and the “Compound (%), material balance” value (HLM [1]; time 60 min) was 24.5928%.

With `Nn1nnc2ccccc21` [ABT, 1-aminobenzotriazole] the “inhibition of 5-HBFT formation in HLM” value [2] was “completely”.

Compound `C[C@]12CC[C@H](O)C[C@H]1CC[C@@H]1[C@@H]2CC[C@]2(C)[C@@H](c3ccc(=O)oc3)CC[C@]12O` [BF, bufalin, reference compound] has a Km at 30 min (in vitro; pH 7.4) of 8 ± 0.52 µM.

In the case of `CC(=O)O[C@H]1C[C@]2(O)[C@@H]3CC[C@@H]4C[C@@H](O)CC[C@]4(C)[C@H]3CC[C@]2(C)[C@H]1c1ccc(=O)oc1` [BFT, bufotalin], the “Compound (%), material balance” value (HLM [1]; time 0 min) is reported as 99.5%, the “Compound (%), material balance” value (HLM [1]; time 30 min) is reported as 88.0247% and the “Compound (%), material balance” value (HLM [1]; time 60 min) is reported as 73.5708%. The “Vmax, high-affinity site (Vmax1), BFT 5β-hydroxylation” value (HLM [3]; [5]) was 33.31 per min/mg and 33.31 ± 12.64 per min/mg, the “Vmax, low-affinity site (Vmax2), BFT 5β-hydroxylation” value (HLM [3]; [5]) was 107.30 per min/mg and 107.30 ± 11.77 per min/mg and the “kinetic behavior of BFT 5β-hydroxylation” value (HLM [3]; HLM, Eadie–Hofstee plot) was “biphasic kinetics”. The “metabolite formation by other P450 isoforms” value (other P450 isoforms) was “no metabolites were detected”, the “Vmax, high-affinity site (Vmax1), BFT 5β-hydroxylation” value (recombinant human CYP3A4; [6]) was 6.87 per min/nmol P450 and 6.87 ± 3.59 per min/nmol P450 and the “Vmax, low-affinity site (Vmax2), BFT 5β-hydroxylation” value (recombinant human CYP3A4; [6]) was 33.70 per min/nmol P450 and 33.70 ± 3.08 per min/nmol P450. For the same compound, the “kinetic behavior of BFT 5β-hydroxylation” value (recombinant human CYP3A4; CYP3A4, Eadie–Hofstee plot) was “biphasic kinetics”, the Km (in vitro; high-affinity site (Km1)) was 3.71 ± 2.68 µM and the Km (in vitro; low-affinity site (Km2)) was 134 ± 72.2 µM. The “CLint, BFT 5β-hydroxylation” value (recombinant human CYP3A5; CYP3A5) was 1186.12, the “Ksi (substrate inhibition constant), BFT 5β-hydroxylation” value (recombinant human CYP3A5; [7]) was 170.00 ± 12.69 µM and the “Vmax, BFT 5β-hydroxylation” value (recombinant human CYP3A5; [7]) was 3.45 nmol/min per nanomole P450. For the same compound, the “kinetic behavior of BFT 5β-hydroxylation” value (recombinant human CYP3A5; CYP3A5, Eadie–Hofstee plot) was “substrate inhibition kinetic”.

In the case of `Cc1ccc(-c2c(-c3nn(C)c4ncnc(N5CC[C@H](N6CCCCC6)C5)c34)cnn2C)cc1` [CYP3cide], the “inhibition of 5-HBFT formation in HLM” value [2] is reported as ~90%.

For recombinant human CYP3A5 (Homo sapiens), the Km [4] was 2.91 ± 0.24 µM and the kcat [4] was 3.45 ± 0.09 nmol/min per nanomole P450.
